# Results reported in ChEMBL document CHEMBL1201862, “PubChem BioAssay data set” (2004).
# Activity calls are given as the source filed them.
# Assays:
# [1] = target: T1, Bcl-2-like protein 10 (Homo sapiens, UniProt Q9HD36); test: Bcl-B/TR3 peptide binding disruption – biochemical, fluorescence polarization, FITC-TR3 peptide, selectivity assay for Bfl-1 inhibitor project, primary screen (AID 748);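 also: fluorescence polarization from a fluorescein-labelled TR3 peptide binding purified Bcl-B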
# T1 sequence (Q9HD36 whole entry): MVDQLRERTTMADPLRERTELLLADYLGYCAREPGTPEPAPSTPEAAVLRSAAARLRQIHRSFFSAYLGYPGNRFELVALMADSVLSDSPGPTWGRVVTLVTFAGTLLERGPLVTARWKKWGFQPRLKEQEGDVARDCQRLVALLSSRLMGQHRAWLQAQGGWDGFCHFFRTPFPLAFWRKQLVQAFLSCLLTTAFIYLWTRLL
# [2] = viability of uninfected HEp-2 cells – cell-based, HTS, cytotoxicity control for RSV inhibitor project, dose response (AID 2410); assay type: functional; settings: human respiratory syncytial virus
# [3] = HPDE-C7 pancreatic duct cell viability loss – fluorescence, HTS (AID 430); assay type: functional, cell-based; settings: Homo sapiens
# [4] = viability loss of HPDE-C7K cells – cell-based, fluorescence, HTS, primary screen (AID 431); assay type: functional; settings: Homo sapiens
# [5] = target: T2, Mannose-6-phosphate isomerase (Homo sapiens, UniProt P34949); test: MPI inhibition at elevated mannose 6-phosphate – biochemical, fluorescence intensity, high mannose 6-phosphate, primary screen (AID 1220)
# T2 sequence (P34949 whole entry): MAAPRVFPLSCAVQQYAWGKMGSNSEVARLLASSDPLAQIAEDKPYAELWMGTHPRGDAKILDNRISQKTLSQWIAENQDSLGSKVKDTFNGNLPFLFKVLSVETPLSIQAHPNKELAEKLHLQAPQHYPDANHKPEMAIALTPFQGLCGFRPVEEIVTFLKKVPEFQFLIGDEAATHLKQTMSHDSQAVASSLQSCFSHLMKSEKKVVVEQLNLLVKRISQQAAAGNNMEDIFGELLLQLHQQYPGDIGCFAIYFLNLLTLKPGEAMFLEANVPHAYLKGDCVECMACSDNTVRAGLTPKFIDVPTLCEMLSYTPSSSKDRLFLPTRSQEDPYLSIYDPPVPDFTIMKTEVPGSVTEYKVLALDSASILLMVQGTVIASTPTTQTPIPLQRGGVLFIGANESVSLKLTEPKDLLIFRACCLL
# [6] = M. tuberculosis H37Rv growth inhibitors, H37Rv strain (AID 1626); assay type: functional
# [7] = THP-1 cell cytotoxicity, dose response, cytotoxicity control for non-replicating M. tuberculosis project (AID 489025); assay type: functional
# [8] = cells; assay type: functional
# [9] = luciferase reporter signal suppression in cells – H4 neuroglioma cells, luminescence, dose response (AID 1990); assay type: functional, cell-based
# [10] = Luminescence Cell-Based Dose Response HTS to Identify Inhibitors of 5'UTR Stem-Loop Driven Prion Protein mRNA Translation in H4 Neuroglioblastoma Cells. [Related pubchem assays: 1827 (Project Summary), 1813 (Primary HTS)]; assay type: functional
# [11] = alpha-synuclein stem-loop luciferase translation blockers – H4 neuroglioma cells, luminescence, confirmation (AID 1988); assay type: functional, cell-based
# [12] = HEK-293T cell viability reduction – luminescence, B-cell screen hits, cytotoxicity control for BCR NF-kB inhibitor project, dose response (AID 489021); assay type: functional, cell-based;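 also: HEK-293T cells carrying an NF-kB luciferase reporter; cells exposed to compound for about 14 hours before viability readout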
# [13] = target: DNA dC->dU-editing enzyme APOBEC-3A (Homo sapiens, UniProt P31941); test: A3A deaminase inhibition for selectivity – biochemical, dose response (AID 504722); assay type: functional
# [14] = target: DNA dC->dU-editing enzyme APOBEC-3G (Homo sapiens, UniProt Q9HC16); test: Dose Response confirmation of small molecule APOBEC3G DNA Deaminase Inhibitors via a fluorescence-based single-stranded DNA deaminase assay. [Related pubchem assays (depositor defined):AID493012, AID493028]; assay type: functional
# [15] = target: Large T antigen (Simian virus 40, UniProt P03070); assay type: functional, Betapolyomavirus macacae;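 also: Confirmatory-stage PubChem screen for compounds that inhibit SV40 T antigen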
# [16] = target: Glucose-6-phosphate 1-dehydrogenase (Homo sapiens, UniProt P11413); test: inhibition of Homo sapiens G6PD, dose series – biochemical, fluorescence, selectivity assay for P. falciparum G6PD inhibitor project, dose response (AID 504792); assay type: functional
# [17] = Trypanosoma cruzi growth suppression in host cells – NIH3T3 host cells, beta-gal luminescence, confirmation (AID 2044); assay type: functional, cell-based;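 also: intracellular parasites grown in NIH/3T3 mouse fibroblasts as host cells; luminescent beta-galactosidase reporter signal from transgenic T. cruzi replicating inside host cells; inhibitors lower the luminescence signal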
# [18] = NIH3T3 cell viability loss – ATP luminescence, mouse fibroblasts, counter-screen, dose response (AID 2010); assay type: functional, cell-based;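 also: cells exposed to compound for about 90 hours before reading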
# [19] = system: INS1; test: INS-1E survival protection against cytokine death – cell-based, luminescence, retest, dose response (AID 449756); assay type: functional; settings: Rattus norvegicus;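 also: cell death triggered by IL-1 beta plus TNF-alpha plus IFN-gamma mixture; protective hits raise ATP signal compared with cytokine alone wells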
# Sequence of DNA dC->dU-editing enzyme APOBEC-3G (Q9HC16 whole entry): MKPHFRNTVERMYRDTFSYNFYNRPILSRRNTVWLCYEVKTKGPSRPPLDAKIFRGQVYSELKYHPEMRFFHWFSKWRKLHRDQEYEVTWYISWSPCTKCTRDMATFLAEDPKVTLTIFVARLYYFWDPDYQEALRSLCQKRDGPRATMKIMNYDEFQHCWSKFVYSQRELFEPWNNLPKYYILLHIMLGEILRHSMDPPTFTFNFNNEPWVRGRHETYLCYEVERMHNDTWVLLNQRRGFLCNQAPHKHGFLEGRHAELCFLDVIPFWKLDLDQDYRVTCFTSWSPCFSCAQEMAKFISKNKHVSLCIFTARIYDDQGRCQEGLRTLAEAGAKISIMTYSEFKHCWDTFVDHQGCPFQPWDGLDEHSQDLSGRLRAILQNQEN
# Sequence of DNA dC->dU-editing enzyme APOBEC-3A (P31941 whole entry): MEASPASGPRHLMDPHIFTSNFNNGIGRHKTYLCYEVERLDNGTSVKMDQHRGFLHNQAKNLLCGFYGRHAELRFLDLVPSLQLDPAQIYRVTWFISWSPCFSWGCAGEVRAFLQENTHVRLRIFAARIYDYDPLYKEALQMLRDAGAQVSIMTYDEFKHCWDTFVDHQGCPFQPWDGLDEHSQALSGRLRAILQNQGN
# Sequence of Large T antigen (P03070 whole entry): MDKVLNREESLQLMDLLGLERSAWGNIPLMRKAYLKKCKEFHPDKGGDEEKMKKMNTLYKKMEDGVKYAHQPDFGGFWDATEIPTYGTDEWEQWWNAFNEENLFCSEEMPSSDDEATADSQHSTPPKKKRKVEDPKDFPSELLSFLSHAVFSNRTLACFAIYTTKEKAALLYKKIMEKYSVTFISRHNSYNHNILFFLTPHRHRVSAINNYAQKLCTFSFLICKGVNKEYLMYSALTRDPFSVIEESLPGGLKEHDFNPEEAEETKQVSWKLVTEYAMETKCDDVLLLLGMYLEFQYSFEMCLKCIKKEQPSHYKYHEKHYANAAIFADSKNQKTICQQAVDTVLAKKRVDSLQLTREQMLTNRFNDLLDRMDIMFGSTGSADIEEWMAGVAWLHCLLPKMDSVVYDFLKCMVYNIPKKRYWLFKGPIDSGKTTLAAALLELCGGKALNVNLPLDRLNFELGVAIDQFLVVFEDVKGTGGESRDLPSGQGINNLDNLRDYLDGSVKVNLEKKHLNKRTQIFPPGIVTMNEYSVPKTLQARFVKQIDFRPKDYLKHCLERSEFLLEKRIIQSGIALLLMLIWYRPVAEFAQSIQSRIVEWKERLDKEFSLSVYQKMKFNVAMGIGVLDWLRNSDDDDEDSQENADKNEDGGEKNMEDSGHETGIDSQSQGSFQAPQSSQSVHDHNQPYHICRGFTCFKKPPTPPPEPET
# Sequence of Glucose-6-phosphate 1-dehydrogenase (P11413 whole entry): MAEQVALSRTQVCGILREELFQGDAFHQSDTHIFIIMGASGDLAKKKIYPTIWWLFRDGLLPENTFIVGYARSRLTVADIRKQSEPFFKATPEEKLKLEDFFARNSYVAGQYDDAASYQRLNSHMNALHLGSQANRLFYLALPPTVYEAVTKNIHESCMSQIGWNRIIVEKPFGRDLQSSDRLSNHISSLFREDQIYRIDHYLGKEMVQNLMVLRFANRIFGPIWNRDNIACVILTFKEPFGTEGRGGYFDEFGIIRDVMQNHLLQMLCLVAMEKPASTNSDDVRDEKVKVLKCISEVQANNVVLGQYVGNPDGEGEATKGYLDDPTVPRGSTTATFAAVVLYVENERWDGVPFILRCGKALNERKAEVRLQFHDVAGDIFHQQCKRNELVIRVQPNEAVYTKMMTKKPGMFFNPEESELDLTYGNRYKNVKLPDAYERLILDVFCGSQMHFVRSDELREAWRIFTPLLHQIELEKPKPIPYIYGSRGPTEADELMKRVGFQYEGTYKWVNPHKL
compound,measurement,setting,value
COC(=O)c1[nH]c2cccc(OC)c2c1NC(=O)CCN1CCC(C(N)=O)CC1,IC50,[1],> 100 µM (inactive)
COc1cc2c(C#N)c(N3CCc4ccccc4C3)nc(N)c2c(N)n1,CC50,[2],15.2 µM (active)
same,EC50,[3],7.82 µM (active)
same,EC50,[4],8.37 µM (active)
same,IC50,[5],> 50 µM (not active)
COc1ccc(NC(=O)c2ccc(COCC(F)(F)C(F)F)cc2)cc1,IC50,[6],> 100 µM (active)
same,CC50,[7],> 40 µM (active)
same,IC50,[8],47.8 µM (active)
CCOC(=O)c1cc2c(=O)n3ccccc3nc2n(CC(C)C)/c1=N/C(=O)c1c(-c2c(F)cccc2Cl)noc1C,EC50,[9],14.1 µM (active)
same,EC50,[10],15.8 µM (active)
same,EC50,[11],42.8 µM (active)
same,IC50,[12],> 80 µM (inactive)
Sc1nnc(-c2ccccn2)n1/N=C/c1cccc(Cl)c1,IC50,[13],> 100 µM (inactive)
same,IC50,[14],2.81 µM (active)
C/C(=C\C(=O)c1cccnc1)Nc1ccc(C(=O)O)cc1,IC50,[5],> 50 µM (not active)
C/N=c1/nc(-c2ccccc2)n(-c2ccccc2)s1,IC50,[15],29.4 µM (active)
same,IC50,[13],> 100 µM (inactive)
same,IC50,[16],10.1 µM (active)
same,IC50,[14],15.9 µM (active)
N=c1c2c(n(Cc3cccc(Cl)c3)c3c1CCC3)CCCC2,EC50,[17],0.167 µM (active)
same,EC50,[18],> 60 µM (inconclusive)
same,IC50,[12],> 80 µM (inactive)
same,AC50,[19],6.82 µM (active)
